Data taken from US4291042A, “Antidepressant piperidine derivatives” (John Wyeth & Brother Limited, priority 1979, dated 1981).

How the values were obtained:
[1] = tested on: neuronal uptake of noradrenaline into slices of cerebral cortex; experiment: inhibition of noradrenaline uptake in brain slices; format: biochemical, rat; settings: for inhibition of noradrenaline uptake (in words): rat brain slices; for Potency Ratio (imipramine = 1.0) Noradrenaline: rat cerebral cortex slices, H^3 noradrenaline
Method: (§1) The compounds of formula I were tested for the ability to inhibit noradrenaline and 5-hydroxytryptamine uptake in brain slices in the following standard test:
Concentration-response curves are obtained both for the test compound and for the standard agent, imipramine. The potency of each test compound is expressed in proportion to that of imipramine. Thus, [formula]

[2] = tested on: uptake of 5-hydroxytryptamine; experiment: inhibition of 5-hydroxytryptamine uptake in brain slices; format: biochemical, rat; parameters: key: Compounds not achieving 50% inhibition are considered inactive; settings: for inhibition of 5-HT (hydroxytryptamine) uptake (in words): rat brain slices; for Potency Ratio (imipramine = 1.0) 5-hydroxytryptamine: rat cerebral cortex slices, H^3 5-hydroxytryptamine
Method: as §1
The effects of test compounds on the neuronal uptake of noradrenaline into slices of cerebral cortex prepared from rat brain is determined according to the method described by Snyder, Green and Hendley, Kinetics of H^3 --norepinephrine accumulation into slices from different regions of the rat brain (J.Pharm. exp. Therap. 164: 90-102) (1968). The effects of test compounds on the uptake of 5-hydroxytryptamine is obtained in a similar manner except that H^3 5-hydroxytryptamine is used in place of H^3 noradrenaline. Concentration-response curves are obtained both for the test compound and for the standard agent, imipramine. The potency of each test compound is expressed in proportion to that of imipramine. Thus, [formula]

[3] = tested on: p-chloroamphetamine induced hyperactivity; experiment: inhibition of p-chloroamphetamine (pCA) induced hyperactivity; format: in vivo; settings: female mice; 50 mg/kg po; 20 mg/kg pCA ip 30 min later; activity 10-30 min post pCA
Method: Compounds of formula I were also tested for their ability to inhibit p-chloroamphetamine induced hyperactivity. The following procedure was used:
Three groups of 4 female mice (20-24 g) received the test compounds (50 mg/kg po) and a fourth group the requisite volume of vehicle. Thirty minutes later all the animals are given 20 mg/kg p-chloroamphetamine (pCA) ip. The grouped mice are placed immediately in square plastic cages in activity monitors and their motor activity recorded over the period 10-30 minutes post pCA. This procedure is repeated three more times so that four groups of mice are used per treatment and each activity monitor is used with all treatments in turn. The inhibition of pCA induced hyperactivity is calculated thus: [formula] where C=mean activity of control groups 10-30 minutes post pCA.
T=mean activity of treated groups 10-30 minutes post pCA.
This test is used as an in vivo screen for detection of 5-hydroxytryptamineuptake inhibitors.
Compounds giving >50% inhibition are considered of special interest. In such a test the following compounds were particularly active: […]

SMILES | inhibition of noradrenaline uptake (in words) [1] | Potency Ratio (imipramine = 1.0) Noradrenaline [1] | inhibition of 5-HT (hydroxytryptamine) uptake (in words) [2] | Potency Ratio (imipramine = 1.0) 5-hydroxytryptamine [2] | % Inhibition of pCA induced hyperactivity [3]
O=C1c2ccccc2C(=O)N1C1CCN(Cc2ccccc2)CC1 [B, 2-(1-benzylpiperid-4-yl)-1H-isoindol-1,3-(2H)-dione, reference compound] | inactive | inactive | inactive | inactive | –
O=C1c2ccccc2S(=O)(=O)N1C1CCN(Cc2c[nH]c3ccccc23)CC1 [Example 3, 2-(1-[Indol-3-ylmethyl]piperid-4-yl)-1,2-benzisothiazolin-3-one-1,1-dioxide] | – | – | – | – | 56%
O=C1c2ccc(Cl)cc2C(=O)N1C1CCN(CCc2c[nH]c3ccccc23)CC1 [Example 8, 5-Chloro-2-(1-[2-(indol-3-yl)ethyl]piperid-4-yl)-1H-isoindole-1,3-(2H)-dione] | – | – | – | – | 94%
O=C1c2ccc(Cl)cc2C(=O)N1C1CCN(Cc2c[nH]c3ccccc23)CC1 [Example 16, 5-Chloro-2-[1-(indol-3-ylmethyl)piperid-4-yl]-1H-isoindole-1,3-(2H)-dione] | – | – | – | – | 63%
O=C1c2ccccc2C(=O)N1C1CCN(Cc2c[nH]c3ccccc23)CC1 [I, 2-(1-[Indol-3-ylmethyl]piperid-4-yl)-1H-isoindole-1,3-(2H)-dione] | very weak inhibitors | 0.01 | potent inhibitors | 9.5 | 53%
O=C1c2ccccc2C(=O)N1C1CCN(CCc2c[nH]c3ccccc23)CC1 [II, 2-(1-[2-(Indol-3-yl)ethyl]piperid-4-yl)-1H-isoindol-1,3-(2H)-dione] | very weak inhibitors | 0.06 | potent inhibitors | 8.3 | –
Nc1ccc2c(c1)C(=O)N(C1CCN(CCc3c[nH]c4ccccc34)CC1)C2=O [III, 5-amino-2-(1-[2-(indol-3-yl)ethyl]piperid-4-yl)-1H-isoindole-1,3-(2H)-dione] | very weak inhibitors | inactive | potent inhibitors | 11.0 | –
